Laboratory results reported in US20160238590A1, “COMPOSITIONS AND METHODS RELATED TO OAT SENSITIVITY” (IMMUSANT, INC., priority 2013, published 2016).
Where no end group is shown, it is not given here. [ ]: non-standard residue; d: D form. pGlu = O=C1CC[C@@H](C(=O)O)N1

Legend:
Assay in all cases: IFN-γ ELISpot with T cell clone
Type in all cases: cell-based, human
Patient 14 TCC-01 = settings: TCC Patient 14 TCC-01, peptide 50 μg/mL
Method: (§1) Peripheral blood mononuclear cells (PBMC) were isolated from heparinized whole blood using Ficoll-Paque™ Plus density-gradient centrifugation (GE Healthcare). IFN-γ ELISpot (Mabtech) was set up as previously described^8.
(§2) Isolation of TCC from CD patients was carried out as previously described^8. Briefly, CFSE-labeled PBMC were incubated with antigen for 7 days in IMDM supplemented with 5% heat-inactivated pooled human serum (PHS), 2 mM GlutaMAX™, 100 μM MEM non-essential amino acids (both from Gibco, Invitrogen), and 50 μM 2-mercaptoethanol (Sigma). Proliferated cells were single-cell sorted into 96-well plates containing IL-2, IL-4, anti-CD3 mAb, irradiated feeder cells (allogeneic PBMC and JY-EBV). TCC were expanded and maintained in IL-2 and IL-4 and tested for specificity by ELISpot with irradiated HLA-matched PBMC as antigen-presenting cells. Expanded clones were tested for HLA-DQ restriction, TCR Vbeta usage, and with lysine scans to work out minimal epitopes. See Table 1 below for TCC and epitope information.

Patient 2 TCC-01 = tested on: Patient 2 TCC-01
Method: as §1, §2

Patient 9 TCC-01 = settings: TCC Patient 9 TCC-01, peptide 50 μg/mL
Method: as §1, §2

Patient 2 TCC-02 = settings: TCC Patient 2 TCC-02, peptide 25 μg/mL
Method: as §1, §2

Patient 2 TCC-03 = settings: TCC Patient 2 TCC-03, peptide 25 μg/mL
Method: as §1, §2

Patient 6 TCC-01 = tested on: Patient 6 TCC-01
Method: as §1, §2

Patient 9 TCC-02 = settings: TCC Patient 9 TCC-02, peptide 50 μg/mL
Method: as §1, §2

Patient 8 TCC-01 = settings: TCC Patient 8 TCC-01, peptide 25 μg/mL
Method: as §1, §2

Patient 10 TCC-01 = settings: TCC Patient 10 TCC-01, peptide 50 μg/mL
Method: as §1, §2

[1] = TCC Patient 2 TCC-01, peptide 25 μg/mL
[2] = TCC Patient 2 TCC-01, peptide 50 μg/mL
[3] = TCC Patient 6 TCC-01, peptide 25 μg/mL
[4] = TCC Patient 6 TCC-01, peptide 50 μg/mL

Sequence	IFN-γ ELISpot response (raw SFU) (Patient 14 TCC-01)	IFN-γ ELISpot response (raw SFU) (Patient 2 TCC-01; [2])	IFN-γ ELISpot response (raw SFU) (Patient 9 TCC-01)	IFN-γ ELISpot response (raw SFU) (Patient 6 TCC-01; [4])	IFN-γ ELISpot response (raw SFU) (Patient 9 TCC-02)	IFN-γ ELISpot response (raw SFU) (Patient 10 TCC-01)	other results
PEQPFPEQPQPYPQQP (not fully specified (C-terminus))	66 SFU	202 SFU	0 SFU	73 SFU	0 SFU	3 SFU	significant SFU as a percentage of maximal peptide SFU (Patient 14 TCC-01): *** (***: >70%); IFN-γ ELISpot response (SFU) (Patient 2 TCC-01; [1]): 151 SFU; significant SFU as a percentage of maximal peptide SFU (Patient 2 TCC-01; [1]): ** (**: 40-70%); significant SFU as a percentage of maximal peptide SFU (Patient 2 TCC-01; [2]): ** (**: 40-70%); IFN-γ ELISpot response (SFU) (Patient 2 TCC-02): 5 SFU; IFN-γ ELISpot response (SFU) (Patient 2 TCC-03): 159 SFU; significant SFU as a percentage of maximal peptide SFU (Patient 2 TCC-03): *** (***: >70%); IFN-γ ELISpot response (SFU) (Patient 6 TCC-01; [3]): 59 SFU; significant SFU as a percentage of maximal peptide SFU (Patient 6 TCC-01; [3]): ** (**: 40-70%); significant SFU as a percentage of maximal peptide SFU (Patient 6 TCC-01; [4]): *** (***: >70%); IFN-γ ELISpot response (SFU) (Patient 8 TCC-01): 145 SFU; significant SFU as a percentage of maximal peptide SFU (Patient 8 TCC-01): *** (***: >70%)
LQPFPQPELPYPQPQ [reference compound]	22 SFU	0 SFU	287 SFU	2 SFU	240 SFU	39 SFU	significant SFU as a percentage of maximal peptide SFU (Patient 9 TCC-01): *** (***: >70%); significant SFU as a percentage of maximal peptide SFU (Patient 9 TCC-02): *** (***: >70%)
QPFPQPEQPFPWQP ([pGlu]PFPQPEQPFPWQP-NH2; SMILES NC(=O)CC[C@H](NC(=O)[C@H](Cc1c[nH]c2ccccc12)NC(=O)[C@@H]1CCCN1C(=O)[C@H](Cc1ccccc1)NC(=O)[C@@H]1CCCN1C(=O)[C@H](CCC(N)=O)NC(=O)[C@H](CCC(=O)O)NC(=O)[C@@H]1CCCN1C(=O)[C@H](CCC(N)=O)NC(=O)[C@@H]1CCCN1C(=O)[C@H](Cc1ccccc1)NC(=O)[C@@H]1CCCN1C(=O)[C@@H]1CCC(=O)N1)C(=O)N1CCC[C@H]1C(N)=O) [wheat gliadin peptide containing DQ2.5-glia-ω1 and DQ2.5-glia-ω2, reference compound]	20 SFU	2 SFU	1 SFU	1 SFU	0 SFU	205 SFU	significant SFU as a percentage of maximal peptide SFU (Patient 10 TCC-01): *** (***: >70%)
